Test results: US10358434B2, “2-(3-pyridinyl)-1H-benzimidazole derivative compound and medicament containing same” (NIHON MEDI-PHYSICS CO., LTD., priority 2014, dated 2019)

What was measured:
[1] = tested on: human adrenal gland section expressing aldosterone-producing adenoma; assay: In vitro autoradiography using human adrenal adenoma; type: binding; conditions: section of FIG. 17(b)
In short: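 Autoradiography readout: PSL in equal-sized ROIs over adenoma (B2) and normal adrenal cortex (B1), expressed as B2/B1 and decay-corrected using half-life, applied activity and plate contact time. Tissue was surgically excised human adrenal, frozen and cut at 7 μm, incubated 10 min with 5-33 kBq/mL tracer in BSA-containing PBS, then imaged after 16-20 h exposure.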

[2] = In vivo kinetics experiment (radioactivity distribution); parameters: species or system Wistar male rat; conditions: rat i.v., mean ± SD
In short: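 Tissue radioactivity (% ID/g) and adrenal-to-blood, liver, kidney, small intestine, muscle and fat ratios determined at 10, 30 and 60 min post-dose. Tracers (approximately 1 to 3.7 MBq, saline with 1 w/v % ascorbic acid) injected i.v. into caudal vein of anesthetized 9-week male Wistar rats; organs excised, weighed, counted.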

[3] = Plasma stability evaluation (TLC analysis); type: in vitro ADME; conditions: 37° C., 60 minutes, TLC analysis
In short: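 TLC analysis, using each compound's synthesis conditions, judged stability after methanol was added and samples were centrifuged to remove protein. Beforehand, each tracer had spent 60 minutes at 37° C in pooled heparinized normal human plasma.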

Question: Which results are given for `CCn1c(-c2cncc(Cn3ccnc3)c2)nc2ccc([123I])cc21` [[^123I] 608, 2-[5-{(1H-imidazol-1-yl)methyl}pyridin-3-yl]-1-ethyl-6-[^123I]iodo-1H-benzo[d]imidazole]?
Answer: B2/B1 accumulation ratio [1]: 1.08; B2 (PSL value, aldosterone-producing adenoma) ([1]; site 71b): 3580; B1 (PSL value, normal adrenal cortex) ([1]; site 72b): 3303; Adrenal gland/blood ratio of radioactivity accumulation ([2]; 10 min after administration): 75.29 ± 24.87; Adrenal gland/fat ratio of radioactivity accumulation ([2]; 10 min after administration): 90.02 ± 14.66; Adrenal gland/kidney ratio of radioactivity accumulation ([2]; 10 min after administration): 4.95 ± 1.61; Adrenal gland/liver ratio of radioactivity accumulation ([2]; 10 min after administration): 2.86 ± 0.42; Adrenal gland/muscle ratio of radioactivity accumulation ([2]; 10 min after administration): 57.35 ± 15.85; Adrenal gland/small intestine ratio of radioactivity accumulation ([2]; 10 min after administration): 5.04 ± 0.35; Radioactivity distribution Adrenal gland ([2]; 10 min after administration): 8.76 ± 2.34 % ID/g; Radioactivity distribution Bladder (including urine) ([2]; 10 min after administration): 0.82 ± 0.43 % ID/g; Radioactivity distribution Blood ([2]; 10 min after administration): 0.12 ± 0.01 % ID/g; Radioactivity distribution Fat ([2]; 10 min after administration): 0.10 ± 0.01 % ID/g; Radioactivity distribution Femur ([2]; 10 min after administration): 0.82 ± 0.05 % ID/g; Radioactivity distribution Heart ([2]; 10 min after administration): 0.74 ± 0.09 % ID/g; Radioactivity distribution Kidney ([2]; 10 min after administration): 1.79 ± 0.11 % ID/g; Radioactivity distribution Large intestine ([2]; 10 min after administration): 0.12 ± 0.01 % ID/g; Radioactivity distribution Liver ([2]; 10 min after administration): 3.03 ± 0.36 % ID/g; Radioactivity distribution Lung ([2]; 10 min after administration): 1.11 ± 0.11 % ID/g; Radioactivity distribution Muscle (lower limbs) ([2]; 10 min after administration): 0.15 ± 0.00 % ID/g; Radioactivity distribution Remaining whole body ([2]; 10 min after administration): 0.29 ± 0.05 % ID/g; Radioactivity distribution Small intestine ([2]; 10 min after administration): 1.74 ± 0.42 % ID/g; Radioactivity distribution Spleen ([2]; 10 min after administration): 3.79 ± 1.44 % ID/g; Radioactivity distribution Stomach ([2]; 10 min after administration): 0.53 ± 0.16 % ID/g; Radioactivity distribution Testis ([2]; 10 min after administration): 0.07 ± 0.01 % ID/g; Radioactivity distribution Whole brain ([2]; 10 min after administration): 0.03 ± 0.01 % ID/g; Adrenal gland/blood ratio of radioactivity accumulation ([2]; 30 min after administration): 172.72 ± 25.00; Adrenal gland/fat ratio of radioactivity accumulation ([2]; 30 min after administration): 103.83 ± 16.66; Adrenal gland/kidney ratio of radioactivity accumulation ([2]; 30 min after administration): 5.90 ± 0.47; Adrenal gland/liver ratio of radioactivity accumulation ([2]; 30 min after administration): 10.03 ± 1.46; Adrenal gland/muscle ratio of radioactivity accumulation ([2]; 30 min after administration): 65.62 ± 16.66; Adrenal gland/small intestine ratio of radioactivity accumulation ([2]; 30 min after administration): 3.39 ± 0.42; Radioactivity distribution Adrenal gland ([2]; 30 min after administration): 10.75 ± 1.11 % ID/g; Radioactivity distribution Bladder (including urine) ([2]; 30 min after administration): 2.70 ± 1.51 % ID/g; Radioactivity distribution Blood ([2]; 30 min after administration): 0.06 ± 0.01 % ID/g; Radioactivity distribution Fat ([2]; 30 min after administration): 0.10 ± 0.01 % ID/g; Radioactivity distribution Femur ([2]; 30 min after administration): 1.17 ± 0.02 % ID/g; Radioactivity distribution Heart ([2]; 30 min after administration): 0.76 ± 0.16 % ID/g; Radioactivity distribution Kidney ([2]; 30 min after administration): 1.82 ± 0.08 % ID/g; Radioactivity distribution Large intestine ([2]; 30 min after administration): 0.11 ± 0.00 % ID/g; Radioactivity distribution Liver ([2]; 30 min after administration): 1.08 ± 0.13 % ID/g; Radioactivity distribution Lung ([2]; 30 min after administration): 1.14 ± 0.08 % ID/g; Radioactivity distribution Muscle (lower limbs) ([2]; 30 min after administration): 0.17 ± 0.03 % ID/g; Radioactivity distribution Remaining whole body ([2]; 30 min after administration): 0.30 ± 0.00 % ID/g; Radioactivity distribution Small intestine ([2]; 30 min after administration): 3.18 ± 0.18 % ID/g; Radioactivity distribution Spleen ([2]; 30 min after administration): 4.81 ± 0.73 % ID/g; Radioactivity distribution Stomach ([2]; 30 min after administration): 1.34 ± 0.66 % ID/g; Radioactivity distribution Testis ([2]; 30 min after administration): 0.11 ± 0.00 % ID/g; Radioactivity distribution Whole brain ([2]; 30 min after administration): 0.02 ± 0.00 % ID/g; Adrenal gland/blood ratio of radioactivity accumulation ([2]; 60 min after administration): 345.58 ± 116.00; Adrenal gland/fat ratio of radioactivity accumulation ([2]; 60 min after administration): 158.96 ± 131.25; Adrenal gland/kidney ratio of radioactivity accumulation ([2]; 60 min after administration): 10.46 ± 6.81; Adrenal gland/liver ratio of radioactivity accumulation ([2]; 60 min after administration): 25.91 ± 10.25; Adrenal gland/muscle ratio of radioactivity accumulation ([2]; 60 min after administration): 113.23 ± 76.79; Adrenal gland/small intestine ratio of radioactivity accumulation ([2]; 60 min after administration): 3.39 ± 1.14; Radioactivity distribution Adrenal gland ([2]; 60 min after administration): 15.22 ± 7.58 % ID/g; Radioactivity distribution Bladder (including urine) ([2]; 60 min after administration): 2.67 ± 0.43 % ID/g; Radioactivity distribution Blood ([2]; 60 min after administration): 0.04 ± 0.01 % ID/g; Radioactivity distribution Fat ([2]; 60 min after administration): 0.11 ± 0.04 % ID/g; Radioactivity distribution Femur ([2]; 60 min after administration): 1.28 ± 0.07 % ID/g; Radioactivity distribution Heart ([2]; 60 min after administration): 0.72 ± 0.09 % ID/g; Radioactivity distribution Kidney ([2]; 60 min after administration): 1.55 ± 0.21 % ID/g; Radioactivity distribution Large intestine ([2]; 60 min after administration): 0.16 ± 0.07 % ID/g; Radioactivity distribution Liver ([2]; 60 min after administration): 0.57 ± 0.06 % ID/g; Radioactivity distribution Lung ([2]; 60 min after administration): 0.94 ± 0.08 % ID/g; Radioactivity distribution Muscle (lower limbs) ([2]; 60 min after administration): 0.15 ± 0.03 % ID/g; Radioactivity distribution Remaining whole body ([2]; 60 min after administration): 0.28 ± 0.01 % ID/g; Radioactivity distribution Small intestine ([2]; 60 min after administration): 4.35 ± 0.69 % ID/g; Radioactivity distribution Spleen ([2]; 60 min after administration): 4.13 ± 1.21 % ID/g; Radioactivity distribution Stomach ([2]; 60 min after administration): 1.15 ± 0.26 % ID/g; Radioactivity distribution Testis ([2]; 60 min after administration): 0.09 ± 0.01 % ID/g; Radioactivity distribution Whole brain ([2]; 60 min after administration): 0.02 ± 0.00 % ID/g; Radiochemical purity after incubation in human plasma [3]: 88%
